Patent publication US12240854B2, “TRAF 6 inhibitors” (Helmholtz Zentrum München - Deutsches Forschungszentrum für …, priority 2018, dated 2025)
Entries after “also recorded” stand apart in the source; their conditions may differ.

Columns and labels:
MDM2 = target: T1, MDM2 (Homo sapiens, UniProt Q00987); experiment: In vitro ubiquitination assay, MDM2 ubiquitin ligase kit (p53 substrate); format: biochemical; details: K48 chain formation
T1 construct: purchased Boston Biochem
Experimental: For analysis of cIAP1, MDM2, TRIM63, RNF4, ITCH and E6AP mediated poly-ubiquitination, the respective ubiquitin ligase kit from Boston Biochem (K-102, K-260, K-200B, K-220, K-240 and K-270) was used. Here, reaction buffer, E1, E2 and E3 enzyme (and p53 substrate in case of MDM2) were mixed and pre-incubated with compound or DMSO for 5 minutes at room temperature before adding Mg^2+-ATP and mono-ubiquitin for reaction start. Ubiquitination was visualized by Western Blot analyses.

[1] = test system: osteosarcoma cell line U2OS; experiment: Cell growth of the osteosarcoma cell line U2OS with or without irradiation; format: cell-based
Experimental: For analysis of the cell growth of the osteosarcoma cell line U2OS, 5×10^3 cells were seeded in 96 well plates. 18 hours later, cells were treated with C25-140 (compound 3) or DMSO for 6 hours. Using a ^137caesium source (HWM-D2000), selected samples were irradiated with a dose of either 2 Gy or 4 Gy. Cell growth was measured every 24 hours for a period of 7 days by counting Hoechst33342 positive cells in an Operetta High-Content Imaging System (PerkinElmer) and the Harmony/Columbus analysis software (PerkinElmer).

Caco-2 = experiment: ADME: Caco-2 assay; format: in vitro ADME
Experimental: All ADME (plasma stability, plasma protein binding, microsomal stability, Log D, Caco-2 assay, CYP450 inhibition and hERG predictor assay) as well as pharmacokinetic studies (Tmax, Cmax, AUC0-240min, Mean Residence Time, Elimination half life, Elimination rate constant, Volume of Distribution and Clearance) of C25-140 (compound 3) were conducted by Bienta Enamine Biology Services of Bienta/Enamine Ltd.

Jurkat T-cells = experiment: CellTiter-Glo viability assay, Jurkat T-cells; format: cell-based, human; details: 6 or 24 hours incubation
Experimental: (§1) For cell viability experiments using the CellTiter-Glo® 2.0 system (Promega), MEF cells (1.2×10^3 cells/well), HepG2 cells (4×10^3 cells/well) and Jurkat T-cells (5×10^3 cells/well) were seeded in 384 well plates. After 18 hours, cells were treated with compounds using the Sciclone G3 automation system. After 6 or 24 hours incubation, the luciferase measurement was performed according to the manufacturer's manual.

[2] = test system: IMQ-induced psoriasis in Balb/C mice; experiment: Imiquimod (IMQ)-induced psoriasis mouse model; format: in vivo
Experimental: To evaluate the anti-inflammatory activity of the compound C25-140 (compound 3), an Imiquimod (IMQ)-induced psoriasis mouse model was conducted by Washington Biotechnology, Inc. (Baltimore, USA). Per group, 8 male Balb/C mice were shaved in the back (1.5 cm×2 cm) and IMQ and C25-140 were applied topically to the shaved back and the right ear daily for 6 days. Thereby, C25-140 was dissolved in acetone and applied at a total dosage of 500 μg per day (2×250 μg). Mice were monitored and daily scores (erythema, scaling and thickness of back skin) were independently collected on a scale from 0 to 4: 0=none; 1=slight; 2=moderate; 3=marked and 4=very marked. Ear thickness was measured by electronic calipers as an indicator of edema. IL-17 cytokine secretion of the right ear tissue was measured by ELISA.

HepG2 cells = experiment: CellTiter-Glo viability assay, HepG2 cells; format: cell-based; details: 6 or 24 hours incubation
Experimental: as §1

[3] = test system: TRAF6 auto-ubiquitination in Jurkat T-cells; experiment: Immunoprecipitation of TRAF6 for endogenous ubiquitination, Jurkat T-cells; format: cell-based, human; details: PMA/Ionomycin
[4] = test system: NF-κB target genes ICAM-1 and A20 in MEF cells; experiment: mRNA expression (qRT-PCR) in MEF cells; format: cell-based, mouse
Experimental: For MEF cells, 1.2×10^5 cells per sample were seeded, treated with compound for 6 hours and stimulated with either IL-1β or TNFα for 60 minutes. Jurkat T-cells and primary mouse CD4^+ T-cells were seeded at 2×10^5 cells per sample, also treated with compound for 6 hours and stimulated with PMA/lonomycin for 3 hours. RNA was isolated according to the manufacturer's protocol of the Qiagen RNeasy Kit (MEF cells) or the STRATEC INVITRAP® SPIN UNIVERSAL RNA MINI KIT (Jurkat T-cells). The isolation of mRNA from […] white adipose tissue from DIO mice was performed using TRIzol® Reagent according to manufacturer's instruction. To clear the isolated RNA from genomic DNA, samples (up to 5 μg RNA) were treated with RQ1 RNase-Free DNaseI (Promega) as described in the technical manual. For the reverse transcription of RNA into cDNA, the DNaseI digested RNA samples were processed using the SuperScript III First Strand cDNA Synthesis System (Invitrogen/ThermoFisher Scientific) following the manufacturer's protocol. […] For quantification of cDNA in the samples, the LightCylcer480 (Roche) and the KAPA SYBR FAST qPCR Kit were used. For relative quantification, the ΔΔCp method first described by Pfaffl (Pfaffl, M. W., A new mathematical model for relative quantification in real-time RT-PCR. Nucleic Acids Res, 2001. 29(9): p. e45) was applied.

[5] = test system: 87 primary molecular targets (kinases, non-kinase enzymes, nuclear receptors, GPCRs, transporters and ion channels); experiment: SafetyScreen87 (Eurofins Cerep Panlabs); format: binding; details: 10 μM
Experimental: The SafetyScreen87, a total of 87 assays, was carried out at Eurofins Cerep Panlabs. 87 primary molecular targets including 13 enzyme assays (kinases and non-kinase enzymes) and 74 binding assays (nuclear receptors, GPCRs, transporters and ion channels) were performed at a compound concentration of 10 μM C25-140. Each of the 87 assay reactions was performed at the optimised condition that was historically available at Eurofins Cerep Panlabs. In parallel to C25-140, a reference compound for each of the 87 reactions was concurrently tested to guarantee optimal setting of the assays. In this study the reference compounds performed in the same range as historic Ki values.

[6] = topical, 2x250 μg per day, 6 days
[7] = topical, 2x250 μg per day, 6 days, listed as 25-140

T1 sequence (Q00987 whole entry): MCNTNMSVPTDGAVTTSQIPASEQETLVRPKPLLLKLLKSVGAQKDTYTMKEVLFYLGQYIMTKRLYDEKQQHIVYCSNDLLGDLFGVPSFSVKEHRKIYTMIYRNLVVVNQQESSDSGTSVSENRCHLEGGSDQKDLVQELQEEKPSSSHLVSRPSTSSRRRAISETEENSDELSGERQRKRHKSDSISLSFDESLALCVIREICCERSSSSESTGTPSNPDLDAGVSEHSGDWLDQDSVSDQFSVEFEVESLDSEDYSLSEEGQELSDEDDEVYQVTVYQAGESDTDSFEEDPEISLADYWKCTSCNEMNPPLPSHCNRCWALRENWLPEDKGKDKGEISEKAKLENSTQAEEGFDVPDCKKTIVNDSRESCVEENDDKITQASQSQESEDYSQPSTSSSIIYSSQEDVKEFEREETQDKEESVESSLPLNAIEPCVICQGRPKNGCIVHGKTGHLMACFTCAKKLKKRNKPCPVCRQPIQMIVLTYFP

Cc1nn(-c2ccc3nnc(C)n3n2)c(C)c1CCC(=O)N1CCC(Cc2ccccc2)CC1 [Example C25-140, 1-(4-Benzylpiperidin-1-yl)-3-(3,5-dimethyl-1-(3-methyl-[1,2,4]-triazolo-[4,3-b]-pyridazin-6-yl)-1H-pyrazol-4-yl)-propan-1-one]
p53 ubiquitination by MDM2 (MDM2): not influenced; also recorded: not affected
osteosarcoma cell growth ([1]; 30 μM compound + 2Gy irradiation): synergistic effects; also recorded: boosted the effect to the region of 4Gy irradiation; also recorded: decreases cell growth to the same extent as the higher dose of irradiation (4Gy)
osteosarcoma cell growth ([1]; compound alone at 30 μM): reducing proliferation of U2OS cells to the same degree as 2Gy irradiation; also recorded: same inhibitory impact; also recorded: reduced
Caco-2 permeability (Caco-2): good penetration of the Caco-2 layer
metabolic activity and cell viability (Jurkat T-cells): did not considerably impact cell viability; also recorded: does not considerably affect metabolic activity and cell viability up to 50 μM; also recorded: at the highest dose of 100 μM toxicity is noticeable
psoriasis symptoms / disease outcome (in words) ([2]; IMQ-induced psoriasis): ameliorates disease outcomes; also recorded: ameliorates symptoms
IL-17 cytokine in right ear tissue ([2]; day 6, ELISA): significantly reduced; also recorded: decreased
cumulative score [2, 6]: reduces
ear thickness [2, 6]: significantly reduced
erythema score of the back [2, 6]: improvement of the disease symptoms
scaling score [2, 6]: improvement of the disease symptoms
thickness score of the back [2, 6]: significantly reduce
cumulative score [2, 7]: significantly reduce
ear thickness [2, 7]: improvement of the disease symptoms
metabolic activity and cell viability (HepG2 cells): did not considerably impact cell viability; also recorded: does not considerably affect metabolic activity and cell viability up to 50 μM; also recorded: at the highest dose of 100 μM toxicity is noticeable
TRAF6 auto-ubiquitination upon TCR stimulation [3]: dose-dependently diminished; also recorded: dose-dependently reduced
mRNA expression of target genes (ICAM-1 and A20) ([4]; IL-1β stimulation): diminished target gene expression; also recorded: impaired
mRNA expression of target genes (ICAM-1 and A20) ([4]; TNFα stimulation): also affects
effect on / binding to the 87 SafetyScreen87 targets [5]: no significant binding; also recorded: did not markedly affect any of the 87 molecular targets
